According to article PMC8286840, “Identifying SARS-CoV-2 antiviral compounds by screening for small molecule inhibitors of Nsp3 papain-like protease” (Biochemical Journal, 2021):
Structures can show the parent of a compound that is named as a salt. Where two headings read alike, the source gives them in different places.

Columns and labels:
[1] = target: T1, SARS-CoV-2 PLpro (nsp3 1564–1878) (Severe acute respiratory syndrome coronavirus 2, UniProt P0DTD1); assay: biochemical; design: FRET-quenched peptide (Pro3) cleavage by PLpro, 10 min pre-incubation, slope over 20 min, normalised to no-compound control; conditions: low concentration screen, read-out: % of control remaining
[2] = target: T1, SARS-CoV-2 PLpro (nsp3 1564–1878); assay: biochemical; design: FRET-quenched peptide (Pro3) cleavage by PLpro, 10 min pre-incubation, slope over 20 min, normalised to no-compound control; conditions: high concentration screen, read-out: % of control remaining

SMILES: O=c1cc(-c2ccc(O)c(O)c2)oc2cc(O)c([C@@H]3O[C@H](CO)[C@@H](O)[C@H](O)[C@H]3O)c(O)c12 [Homoorientin]
- remaining activity at 1.25 µM ([1]; Well no.=3291): 95.6%
- remaining activity at 3.75 µM ([2]; Well no.=3291): 100%

SMILES: COc1c(O[C@@H]2O[C@H](CO)[C@@H](O)[C@H](O)[C@H]2O)cc2oc(-c3ccc(O)cc3)cc(=O)c2c1O [Homoplantaginin]
- remaining activity at 1.25 µM ([1]; Well no.=6446): 94.1%
- remaining activity at 3.75 µM ([2]; Well no.=6446): 95.8%

SMILES: COc1cc(CC(=O)O)ccc1O [Homovanillic acid]
- remaining activity at 1.25 µM ([1]; Well no.=6831): 96.9%
- remaining activity at 3.75 µM ([2]; Well no.=6831): 97%

SMILES: C=CCc1ccc(O)c(-c2ccc(O)c(CC=C)c2)c1 [Honokiol]
- remaining activity at 1.25 µM ([1]; Well no.=3621): 97.6%
- remaining activity at 3.75 µM ([2]; Well no.=3621): 93.8%

SMILES: CN(C)CCc1ccc(O)cc1 [Hordenine sulfate]
- remaining activity at 1.25 µM ([1]; Well no.=3106): 97.9%
- remaining activity at 3.75 µM ([2]; Well no.=3106): 100%

SMILES: NNc1nncc2ccccc12 [Hydralazine hydrochloride]
- remaining activity at 1.25 µM ([1]; Well no.=560): 95.6%
- remaining activity at 3.75 µM ([2]; Well no.=560): 95.5%

SMILES: NS(=O)(=O)c1cc2c(cc1Cl)NCNS2(=O)=O [Hydrochlorothiazide]
- remaining activity at 1.25 µM ([1]; Well no.=658): 100%
- remaining activity at 3.75 µM ([2]; Well no.=658): 98.6%

SMILES: O=C(O)CCc1ccccc1 [Hydrocinnamic acid]
- remaining activity at 1.25 µM ([1]; Well no.=6731): 98.5%
- remaining activity at 3.75 µM ([2]; Well no.=6731): 96.7%

SMILES: CC(=O)OCC(=O)[C@@]1(O)CC[C@H]2[C@@H]3CCC4=CC(=O)CC[C@]4(C)[C@H]3[C@@H](O)C[C@@]21C [Hydrocortisone 21-acetate]
- remaining activity at 1.25 µM ([1]; Well no.=2214): 100%
- remaining activity at 3.75 µM ([2]; Well no.=2214): 101%

SMILES: C[C@]12CCC(=O)C=C1CC[C@@H]1[C@@H]2[C@@H](O)C[C@@]2(C)[C@H]1CC[C@]2(O)C(=O)COC(=O)CCC(=O)O [Hydrocortisone 21-hemisuccinate sodium salt]
- remaining activity at 1.25 µM ([1]; Well no.=5653): 99%
- remaining activity at 3.75 µM ([2]; Well no.=5653): 102%

SMILES: C[C@]12CCC(=O)C=C1CC[C@@H]1[C@@H]2[C@@H](O)C[C@@]2(C)[C@H]1CC[C@]2(O)C(=O)COC(=O)CCC(=O)O [Hydrocortisone 21-hemisuccinate sodium]
- remaining activity at 1.25 µM ([1]; Well no.=704): 92.7%
- remaining activity at 3.75 µM ([2]; Well no.=704): 93.3%

SMILES: CC(=O)OCC(=O)[C@@]1(O)CC[C@H]2[C@@H]3CCC4=CC(=O)CC[C@]4(C)[C@H]3[C@@H](O)C[C@@]21C [Hydrocortisone (acetate)]
- remaining activity at 1.25 µM ([1]; Well no.=7342): 105%
- remaining activity at 3.75 µM ([2]; Well no.=7342): 109%

SMILES: CCCC(=O)O[C@]1(C(=O)CO)CC[C@H]2[C@@H]3CCC4=CC(=O)CC[C@]4(C)[C@H]3[C@@H](O)C[C@@]21C [Hydrocortisone butyrate]
- remaining activity at 1.25 µM ([1]; Well no.=5418): 94.8%
- remaining activity at 3.75 µM ([2]; Well no.=5418): 98.8%

SMILES: C[C@]12CCC(=O)C=C1CC[C@@H]1[C@@H]2[C@@H](O)C[C@@]2(C)[C@H]1CC[C@]2(O)C(=O)CO [Hydrocortisone]
- remaining activity at 1.25 µM ([1]; Well no.=562): 101%
- remaining activity at 1.25 µM ([1]; Well no.=2212): 93%
- remaining activity at 1.25 µM ([1]; Well no.=6439): 99.3%
- remaining activity at 1.25 µM ([1]; Well no.=7331): 93.2%
- remaining activity at 3.75 µM ([2]; Well no.=562): 101%
- remaining activity at 3.75 µM ([2]; Well no.=2212): 96%
- remaining activity at 3.75 µM ([2]; Well no.=6439): 102%
- remaining activity at 3.75 µM ([2]; Well no.=7331): 93.7%

SMILES: COc1c2c(cc3c1OCO3)CCN(C)C2 [Hydrocotarnine HBr]
- remaining activity at 1.25 µM ([1]; Well no.=3462): 102%
- remaining activity at 3.75 µM ([2]; Well no.=3462): 103%

SMILES: Oc1ccc(O)cc1 [Hydroquinone]
- remaining activity at 1.25 µM ([1]; Well no.=472): 102%
- remaining activity at 1.25 µM ([1]; Well no.=3849): 105%
- remaining activity at 3.75 µM ([2]; Well no.=472): 99.1%
- remaining activity at 3.75 µM ([2]; Well no.=3849): 106%

SMILES: Nc1c2c(nc3ccccc13)CCCC2O (stereo not shown) [Hydroxytacrine maleate]
- remaining activity at 1.25 µM ([1]; Well no.=514): 102%
- remaining activity at 3.75 µM ([2]; Well no.=514): 101%

SMILES: Nc1c2c(nc3ccccc13)CCCC2O (stereo not shown) [Hydroxytacrine]
- remaining activity at 1.25 µM ([1]; Well no.=1671): 103%
- remaining activity at 3.75 µM ([2]; Well no.=1671): 103%

SMILES: NC(=O)NO [Hydroxyurea]
- remaining activity at 1.25 µM ([1]; Well no.=566): 97.4%
- remaining activity at 1.25 µM ([1]; Well no.=6544): 103%
- remaining activity at 3.75 µM ([2]; Well no.=566): 96.1%
- remaining activity at 3.75 µM ([2]; Well no.=6544): 100%

SMILES: OCCOCCN1CCN(C(c2ccccc2)c2ccc(Cl)cc2)CC1 (stereo not shown) [Hydroxyzine 2HCl]
- remaining activity at 1.25 µM ([1]; Well no.=5082): 98.5%
- remaining activity at 3.75 µM ([2]; Well no.=5082): 99.9%

SMILES: OCCOCCN1CCN(C(c2ccccc2)c2ccc(Cl)cc2)CC1 (stereo not shown) [Hydroxyzine (dihydrochloride)]
- remaining activity at 1.25 µM ([1]; Well no.=6901): 100%
- remaining activity at 3.75 µM ([2]; Well no.=6901): 98%

SMILES: CN[C@H]1C[C@@H](N)[C@H](O)[C@@H](O[C@@H]2O[C@H](CO)[C@H](O)[C@@H]3OC4(O[C@H]23)O[C@H]([C@@H](N)CO)[C@H](O)[C@H](O)[C@H]4O)[C@@H]1O (stereo partly shown) [Hygromycin B]
- remaining activity at 1.25 µM ([1]; Well no.=5221): 99.8%
- remaining activity at 3.75 µM ([2]; Well no.=5221): 102%

SMILES: C[C@H](CCC(=O)O)[C@H]1CC[C@H]2[C@@H]3C[C@H](O)[C@@H]4C[C@H](O)CC[C@]4(C)[C@H]3CC[C@]12C [Hyodeoxycholic acid]
- remaining activity at 1.25 µM ([1]; Well no.=5868): 103%
- remaining activity at 3.75 µM ([2]; Well no.=5868): 101%

SMILES: CN1[C@@H]2CC[C@H]1C[C@@H](OC(=O)[C@H](CO)c1ccccc1)C2 [Hyoscyamine]
- remaining activity at 1.25 µM ([1]; Well no.=3727): 94.8%
- remaining activity at 3.75 µM ([2]; Well no.=3727): 101%

SMILES: COC[C@@]12CC[C@H](OC)[C@@]34[C@@H]5C[C@@]6(O)[C@H](OC(=O)c7ccccc7)[C@@H]5[C@@](OC(C)=O)([C@@H]([C@H](OC)[C@H]13)[C@H]4N(C)C2)[C@@H](O)[C@@H]6OC [Hypaconitine]
- remaining activity at 1.25 µM ([1]; Well no.=6450): 88.9%
- remaining activity at 3.75 µM ([2]; Well no.=6450): 87.8%

SMILES: Cc1cc(O)c2c(=O)c3c(O)cc(O)c4c5c(O)cc(O)c6c(=O)c7c(O)cc(C)c8c1c2c(c34)c(c78)c65 [Hypericin]
- remaining activity at 1.25 µM ([1]; Well no.=520): 109%
- remaining activity at 1.25 µM ([1]; Well no.=3725): 96.4%
- remaining activity at 3.75 µM ([2]; Well no.=520): 109%
- remaining activity at 3.75 µM ([2]; Well no.=3725): 97.9%

SMILES: COc1c2c3c4c(c(OC)c(=O)c5c(O)cc(OC)c(c6c(OC)cc(O)c(c1=O)c63)c54)[C@@H](C(C)=O)[C@@](C)(O)C2 [Hypocrellin A]
- remaining activity at 1.25 µM ([1]; Well no.=3645): 94%
- remaining activity at 3.75 µM ([2]; Well no.=3645): 92.4%

SMILES: COc1c(O)c2c(=O)cc(OC)c3c4c(OC)cc(=O)c5c(O)c(OC)c6c(c(c1CC(C)=C6C(C)=O)c23)c54 [Hypocrellin B]
- remaining activity at 1.25 µM ([1]; Well no.=3691): 100%
- remaining activity at 3.75 µM ([2]; Well no.=3691): 103%

SMILES: NCCS(=O)O [Hypotaurine]
- remaining activity at 1.25 µM ([1]; Well no.=464): 102%
- remaining activity at 1.25 µM ([1]; Well no.=7779): 106%
- remaining activity at 3.75 µM ([2]; Well no.=464): 102%
- remaining activity at 3.75 µM ([2]; Well no.=7779): 103%

SMILES: O=c1[nH]cnc2nc[nH]c12 [Hypoxanthine]
- remaining activity at 1.25 µM ([1]; Well no.=5246): 96.5%
- remaining activity at 1.25 µM ([1]; Well no.=7269): 91.9%
- remaining activity at 3.75 µM ([2]; Well no.=5246): 96.5%
- remaining activity at 3.75 µM ([2]; Well no.=7269): 89.6%
